Data from patent publication US6762052B1, “DNA sequence encoding flavin-containing monooxygenase” (priority 1993, dated 2004).

Biological target: T1, lys158-HFMO3-MBP (Homo sapiens, UniProt P31513, E158K)
T1 sequence (P31513 2-532 E158K): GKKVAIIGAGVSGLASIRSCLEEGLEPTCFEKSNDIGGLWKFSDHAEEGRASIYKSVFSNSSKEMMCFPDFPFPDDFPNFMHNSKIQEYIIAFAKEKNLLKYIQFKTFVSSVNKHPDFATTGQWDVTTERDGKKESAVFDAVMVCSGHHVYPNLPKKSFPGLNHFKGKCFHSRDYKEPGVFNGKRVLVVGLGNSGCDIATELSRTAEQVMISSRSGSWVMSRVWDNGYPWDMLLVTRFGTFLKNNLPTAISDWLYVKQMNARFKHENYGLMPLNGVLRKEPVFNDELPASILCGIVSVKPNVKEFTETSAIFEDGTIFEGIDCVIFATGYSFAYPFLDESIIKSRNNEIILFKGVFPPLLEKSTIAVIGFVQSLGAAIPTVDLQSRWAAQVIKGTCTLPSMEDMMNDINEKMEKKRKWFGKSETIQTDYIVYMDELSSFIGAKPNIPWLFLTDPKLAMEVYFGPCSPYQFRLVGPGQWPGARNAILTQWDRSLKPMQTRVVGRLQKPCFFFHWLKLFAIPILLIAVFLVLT
Assay: Substrate oxygenation by lys158-HFMO3-MBP fusion protein, HPLC
Conditions: lys158-HFMO3-MBP, N-oxygenation
Description: For HFMO3-MBP assay, all HFMO3-MBP incubations were done as follows: Into a test tube was added DETAPAC (1.2 mM, final concentration for a 250 μl reaction) followed by the addition of 60 μl NADPH generating system (0.4 mM NADP, 0.4 mM glucose-6-phosphate, and 20 μl of a 50 units mI^−1 glucose-6-phosphate dehydrogenase). The tube was chilled on ice and buffer and enzyme were added as described below for individual experiments to give a volume of 240 μl. The incubation was initiated by the addition of 5-DTP (10 μl of 5 mM) and placed in a shaking water bath at 37° C. for 10 min (unless specified otherwise). The incubation was stopped by the addition of 1.0 ml of ice-cold CH2Cl2. Following the addition of sodium carbonate (approx. 20 mg), the culture tube was vortexed, centrifuged (2000×g, 10 min), and the organic layer was removed and transferred to a 1.5 ml microfuge tube. The organic solvent was evaporated under a stream of Ar(g) to dryness and the residue was taken up in MeOH (300 μl) for determination HPLC analysis.
Data was analyzed with a Hitachi D-2500 integrator.
MTS-oxygenation assays were carried out under the same buffer, temperature, time and volume conditions, as for the N-oxygenation assays. The reactions were initiated upon addition of 10 μl of a 5 mM solution of MTS. The reaction was quenched with the addition of 700 μl of 80% CH3CN:20% hexane then 20 mg NaCl(s) and vortexed vigorously for 10 sec. The quenched reactions were then centrifuged briefly to separate the phases. The organic layer, containing product and substrate, was removed and used directly for HPLC analysis.
All other instruments used were the same as above for the N-oxygenation reactions. Conditions for elution were 50% CH3CN/H2O (v:v) with a flow rate gradient as follows: 1.5 ml min^−1 from 0 to 4 min., 1.5-2.5 ml min^−1 from 4 to 5 min, 2.5 ml min^−1 from 5 to 15 min.
Trimethylamine is commonly ingested in foodstuffs or it is available in the diet of humans from choline and other sources. Trimethylamine (TMA) is exclusively eliminated in humans by metabolism to trimethylamine N-oxide (TMANO). […] Thus, urinary TMANO formation provides a simple, reliable and direct assay of FMO3 activity in adult humans. Analysis of TMA to TMANO ratios provides a direct means of phenotyping adult humans for FMO3 activity. Phenotyping FMO3 activity in humans would provide a simple means of evaluating the relationship between the presence of FMO3 and various disease conditions. […]

## CN(C)CCCCCN1c2ccccc2Sc2ccc(C(F)(F)F)cc21 [Compound 5]
  Km: 78 µM
Lineweaver-Burke analysis
  Vmax: 1.88 nmole/min/nmol of flavin
